In PubChem BioAssay AID248 (DTP/NCI, 2004):
Where “and” joins values, the source holds several entries; their conditions need not be identical. Equal entries are not always repeated. Inconclusive results and toxic doses are left out. Cut-off read from the data, not from the text of the source: active = T/C of 150% or more; inactive = T/C below 125%.

System: L1210 leukemia ip in BDF1 mice, survival T/C
Test: NCI In Vivo Anticancer Drug Screen. Data for tumor model L1210 Leukemia (intraperitoneal) in B6D2F1 (BDF1) mice
Settings: endpoint: mean survival time, higher = longer survival
Outline: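 Transplantable tumor model; survival measured in treated vs vehicle control mice. Value = treated/control.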

[1] = dose: 100.0 mg/kg/injection, schedule: Q04DX002 (ip), vehicle: Klucel (hydroxypropylcellulose) (HPC)
[2] = dose: 200.0 mg/kg/injection, schedule: Q04DX002 (ip), vehicle: Klucel (hydroxypropylcellulose) (HPC)
[3] = dose: 400.0 mg/kg/injection, schedule: Q04DX002 (ip), vehicle: Klucel (hydroxypropylcellulose) (HPC)
[4] = dose: 200.0 mg/kg/injection, schedule: Q01DX001 (ip), vehicle: saline
[5] = dose: 400.0 mg/kg/injection, schedule: Q01DX001 (ip), vehicle: saline
[6] = dose: 100.0 mg/kg/injection, schedule: Q01DX001 (ip), vehicle: saline with Tween-80
[7] = dose: 200.0 mg/kg/injection, schedule: Q01DX001 (ip), vehicle: saline with Tween-80
[8] = dose: 400.0 mg/kg/injection, schedule: Q01DX001 (ip), vehicle: saline with Tween-80
[9] = dose: 100.0 mg/kg/injection, schedule: Q01DX009 (ip), vehicle: saline with Tween-80
[10] = dose: 100.0 mg/kg/injection, schedule: Q04DX002 (ip), vehicle: saline with Tween-80
[11] = dose: 100.0 mg/kg/injection, schedule: Q04DX003 (ip), vehicle: saline with Tween-80
[12] = dose: 200.0 mg/kg/injection, schedule: Q01DX009 (ip), vehicle: saline with Tween-80
[13] = dose: 200.0 mg/kg/injection, schedule: Q04DX002 (ip), vehicle: saline with Tween-80
[14] = dose: 200.0 mg/kg/injection, schedule: Q04DX003 (ip), vehicle: saline with Tween-80
[15] = dose: 400.0 mg/kg/injection, schedule: Q04DX002 (ip), vehicle: saline with Tween-80
[16] = dose: 400.0 mg/kg/injection, schedule: Q04DX003 (ip), vehicle: saline with Tween-80
[17] = dose: 100.0 mg/kg/injection, schedule: Q04DX002 (ip), vehicle: saline
[18] = dose: 200.0 mg/kg/injection, schedule: Q04DX002 (ip), vehicle: saline
[19] = dose: 100.0 mg/kg/injection, schedule: Q04DX003 (ip), vehicle: Klucel (hydroxypropylcellulose) (HPC)
[20] = dose: 100.0 mg/kg/injection, schedule: Q01DX001 (ip), vehicle: carboxymethylcellulose (CMC)
[21] = dose: 200.0 mg/kg/injection, schedule: Q01DX001 (ip), vehicle: carboxymethylcellulose (CMC)
[22] = dose: 400.0 mg/kg/injection, schedule: Q01DX001 (ip), vehicle: carboxymethylcellulose (CMC)
[23] = dose: 50.0 mg/kg/injection, schedule: Q04DX002 (ip), vehicle: Klucel (hydroxypropylcellulose) (HPC)
[24] = dose: 25.0 mg/kg/injection, schedule: Q04DX003 (ip), vehicle: Klucel (hydroxypropylcellulose) (HPC)

Measured: T/C

C1=CCC2CSCC2C1 (stereo not given)
inactive: dose: 75.0 mg/kg/injection, schedule: Q01DX009 (ip), vehicle: saline sonified 98 % of control | dose: 150.0 mg/kg/injection, schedule: Q01DX009 (ip), vehicle: saline sonified 98 % of control

Cc1c(C)c(C)c(CCl)c(CCl)c1C
inactive: [1] 97 % of control | [2] 90 % of control | [3] 122 % of control

[CH3][Ga]([CH3])[O]c1ccccc1C=O
inactive: dose: 1.5 mg/kg/injection, schedule: Q01DX009 (ip), vehicle: DMSO 97 % of control | dose: 1.5 mg/kg/injection, schedule: Q04DX003 (ip), vehicle: DMSO 107 % of control | dose: 3.0 mg/kg/injection, schedule: Q01DX009 (ip), vehicle: DMSO 97 % of control | dose: 3.0 mg/kg/injection, schedule: Q04DX003 (ip), vehicle: DMSO 94 % of control | dose: 6.0 mg/kg/injection, schedule: Q01DX009 (ip), vehicle: DMSO 108 % of control | dose: 6.0 mg/kg/injection, schedule: Q04DX003 (ip), vehicle: DMSO 102 % of control

O=C(OC1CCC/C=C\CCCC1)c1ccc(Cl)cc1 (stereo not given)
inactive: [4] 104 % of control | [5] 98 % of control

CC[N+](C)(CC)CCCOC(=O)c1ccccc1Oc1ccc(C)cc1
inactive: dose: 100.0 mg/kg/injection, schedule: Q04DX003 (ip), vehicle: saline 104 % of control | dose: 200.0 mg/kg/injection, schedule: Q04DX003 (ip), vehicle: saline 93 % of control

O=C(O)Cn1[nH]c(=O)ccc1=O
inactive: [6] 103 % of control | [7] 103 % of control | [8] 102 % of control

Nc1ccccc1SC(CC(=O)c1ccccc1)c1ccc(Cl)cc1 (stereo not given)
inactive: dose: 100.0 mg/kg/injection, schedule: Q01DX005 (ip), vehicle: Klucel (hydroxypropylcellulose) (HPC) 91 % of control | [1] 89 % of control | dose: 200.0 mg/kg/injection, schedule: Q01DX005 (ip), vehicle: Klucel (hydroxypropylcellulose) (HPC) 97 % of control | [2] 95 % of control | dose: 400.0 mg/kg/injection, schedule: Q01DX005 (ip), vehicle: Klucel (hydroxypropylcellulose) (HPC) 97 % of control | [3] 100 % of control

COc1cc([N+](=O)[O-])ccc1NC(=S)NC(=O)c1ccc(Cl)cc1Cl
inactive: [6] 92 % of control | [9] 91 % of control and 92 % of control | [10] 104 % of control and 87 % of control | [11] 98 % of control | [7] 92 % of control | [12] 95 % of control and 97 % of control | [13] 93 % of control and 97 % of control | [14] 92 % of control | [8] 90 % of control | dose: 400.0 mg/kg/injection, schedule: Q01DX009 (ip), vehicle: saline with Tween-80 93 % of control and 94 % of control | [15] 95 % of control and 87 % of control | [16] 88 % of control

O=C1NCC2C3CCC(O3)C12 (stereo not given)
inactive: dose: 50.0 mg/kg/injection, schedule: Q04DX002 (ip), vehicle: saline 101 % of control | [17] 97 % of control and 103 % of control | [18] 105 % of control | dose: 400.0 mg/kg/injection, schedule: Q04DX002 (ip), vehicle: saline 97 % of control and 92 % of control

Cn1cnc2cc(N=Cc3ccc(N(CCCl)CCCl)cc3F)ccc21
inactive: [1] 104 % of control | [2] 101 % of control | [3] 97 % of control

CC(=O)CC(C)(C)N
inactive: [11] 94 % of control | [14] 86 % of control

COC(OC)c1cc(S)[nH]c(=O)c1F
inactive: [19] 98 % of control | dose: 200.0 mg/kg/injection, schedule: Q04DX003 (ip), vehicle: Klucel (hydroxypropylcellulose) (HPC) 97 % of control | dose: 400.0 mg/kg/injection, schedule: Q04DX003 (ip), vehicle: Klucel (hydroxypropylcellulose) (HPC) 103 % of control

Cc1ccc(C(C)(C)[CH2][Sn]([CH2]C(C)(C)c2ccc(C)cc2)([CH2]C(C)(C)c2ccc(C)cc2)[CH2]C(C)(C)c2ccc(C)cc2)cc1
inactive: dose: 50.0 mg/kg/injection, schedule: Q04DX002 (ip), vehicle: saline with Tween-80 92 % of control | [10] 100 % of control | [13] 103 % of control | [15] 92 % of control

O=C1CCCC[CH]1[Hg][Cl] (stereo not given)
inactive: dose: 1.25 mg/kg/injection, schedule: Q01DX001 (ip), vehicle: saline 95 % of control | dose: 2.5 mg/kg/injection, schedule: Q01DX001 (ip), vehicle: saline 96 % of control | dose: 5.0 mg/kg/injection, schedule: Q01DX001 (ip), vehicle: saline 87 % of control

S=C(NCc1ccccc1)NCc1ccccc1
inactive: [1] 94 % of control and 87 % of control | [2] 87 % of control | [3] 90 % of control

S=c1[nH]cc2cnccn12
inactive: [9] 103 % of control | [11] 98 % of control | [12] 100 % of control | [14] 100 % of control | [16] 89 % of control

Cc1nnc(NS(=O)(=O)c2ccc(N=Nc3c(N)[nH]c(=O)[nH]c3=O)cc2)s1
inactive: dose: 100.0 mg/kg/injection, schedule: Q01DX001 (ip), vehicle: saline 96 % of control | [4] 111 % of control | [5] 98 % of control

COc1ccccc1CN1CCCN(Cc2ccccc2OC)C1c1c(O)ccc2ccccc12
inactive: [20] 91 % of control | [21] 91 % of control | [22] 91 % of control

CCCCCC(=O)NNc1ccccc1
inactive: [23] 104 % of control | [1] 104 % of control | [2] 111 % of control | [3] 104 % of control

O=C(OCc1ccccc1CN1CCCCC1)c1ccc(Br)cc1
inactive: dose: 25.0 mg/kg/injection, schedule: Q04DX002 (ip), vehicle: Klucel (hydroxypropylcellulose) (HPC) 115 % of control | [23] 109 % of control | [1] 105 % of control

CCCOCCOCCOC(C)Oc1ccc(OC)cc1 (stereo not given)
inactive: [17] 92 % of control | [18] 101 % of control

Cc1cc2nc(CBr)c(CBr)nc2cc1C
inactive: dose: 3.12 mg/kg/injection, schedule: Q01DX009 (ip), vehicle: acetone 100 % of control | dose: 6.25 mg/kg/injection, schedule: Q01DX009 (ip), vehicle: acetone 94 % of control | dose: 6.25 mg/kg/injection, schedule: Q04DX003 (ip), vehicle: Klucel (hydroxypropylcellulose) (HPC) 95 % of control | dose: 12.5 mg/kg/injection, schedule: Q04DX003 (ip), vehicle: Klucel (hydroxypropylcellulose) (HPC) 101 % of control | dose: 12.5 mg/kg/injection, schedule: Q04DX003 (ip), vehicle: saline with Tween-80 98 % of control | [24] 93 % of control

CSc1ncnc2c1ncn2C1OC(CO)C(O)OC1O (stereo not given)
inactive: dose: 15.0 mg/kg/injection, schedule: Q01DX009 (ip), vehicle: saline 117 % of control | dose: 25.0 mg/kg/injection, schedule: Q01DX009 (ip), vehicle: saline 111 % of control | [24] 104 % of control | dose: 45.0 mg/kg/injection, schedule: Q01DX001 (ip), vehicle: saline 106 % of control | dose: 45.0 mg/kg/injection, schedule: Q01DX009 (ip), vehicle: saline 119 % of control | dose: 50.0 mg/kg/injection, schedule: Q04DX003 (ip), vehicle: Klucel (hydroxypropylcellulose) (HPC) 109 % of control | dose: 67.0 mg/kg/injection, schedule: Q01DX001 (ip), vehicle: saline 118 % of control | dose: 70.0 mg/kg/injection, schedule: Q01DX009 (ip), vehicle: saline 119 % of control | dose: 75.0 mg/kg/injection, schedule: Q01DX009 (ip), vehicle: saline 116 % of control | [19] 110 % of control | [4] 112 % of control

CCOC(=O)c1ccc2c3c([nH]c2c1C)-c1ccccc1CC3
inactive: dose: 50.0 mg/kg/injection, schedule: Q01DX001 (ip), vehicle: carboxymethylcellulose (CMC) 95 % of control | [20] 97 % of control | [21] 106 % of control | [22] 103 % of control

[CH3][Sn]([CH3])([Cl])[Cl]
inactive: dose: 29.0 mg/kg/injection, schedule: Q01DX009 (ip), vehicle: saline 112 % of control
